Reference: patent US11718892B2, “Biological ore processing for the isolation of heavy metals” (CyPlus GmbH, priority 2015, dated 2023)

Tests used:
Assay in all cases: Growth on agar plates with different concentrations of AgNO3 or HAuCl4 (resistance assay)
Assay type in all cases: cell-based
Set-up in all cases: key: x = growth; (x) = weak growth
[1] = tested on: Bacillus sphaericus
Description: (§1) The growth of several microorganisms (e.g. Escherichia coli, Xanthomonas campestris, Cupriavidus metallidurans and Bacillus sphaericus) was monitored in the presence of the lids with coated pins. Escherichia coli and Xanthomonas campestris served as negative controls with regard to metal binding; Cupriavidus metallidurans as positive control. Additionally, Bacillus sphaericus was used as a positive control for silver binding. For Bacillus sphaericus the binding to gold particles and gold coated surfaces was observed earlier by the inventors. Cupriavidus metallidurans is a gram-negative, rod-shaped bacterium which has gold binding capacity as described in the literature (Reith et al., 2006). The species name metallidurans indicates its resistance to heavy metals and its ability to survive in the presence of gold and silver was investigated previously (Reith F, Rogers S L, McPhail D C and Webb D. (2006) “Biomineralization of gold: biofilms on bacterioform gold.” Science 313(5784): 233-236; Reith F, Etschmann B, Grosse C, Moors H, Benotmane M A, Monsieurs P, Grass G, Doonan C, Vogt S, Lai B, Martinez-Criado G, George G N, Nies D H, Mergeay M, Pring A, Southam G and Brugger J. (2009) “Mechanisms of gold biomineralization in the bacterium Cupriavidus metallidurans.” Proc Natl Acad Sci 106(42):17757-17762; Ledrich ML1, Stemmler S, Laval-Gilly P, Foucaud L, and Falla J (2005) “Precipitation of silver-thiosulfate complex and immobilization of silver by Cupriavidus metallidurans CH34.” Biometals 18(6): 643-650).
(§2) To investigate the tolerated concentration of silver and gold, the microorganisms were propagated in liquid medium and streaked on agar plates with different concentrations of AgNO3 or HAuCl4, respectively.

[2] = tested on: Escherichia coli
Description: as §1, §2

[3] = tested on: Xanthomonas campestris
Description: as §1, §2

[4] = tested on: Cupriavidus metallidurans
Description: as §1, §2

O=[N+]([O-])[O-].[Ag+] [AgNO3]
Microbial growth dependence on AgNO3 concentration ([1]; 2 μM AgNO3, agar plate): x | Microbial growth dependence on AgNO3 concentration ([1]; 10 μM AgNO3, agar plate): x | Microbial growth dependence on AgNO3 concentration ([1]; 20 μM AgNO3, agar plate): x | Microbial growth dependence on AgNO3 concentration ([1]; 50 μM AgNO3, agar plate): x | Microbial growth dependence on AgNO3 concentration ([1]; 100 μM AgNO3, agar plate): x | Microbial growth dependence on AgNO3 concentration ([1]; 150 μM AgNO3, agar plate): x | Microbial growth dependence on AgNO3 concentration ([2]; 2 μM AgNO3, agar plate): x | Microbial growth dependence on AgNO3 concentration ([2]; 10 μM AgNO3, agar plate): x | Microbial growth dependence on AgNO3 concentration ([2]; 20 μM AgNO3, agar plate): x | Microbial growth dependence on AgNO3 concentration ([2]; 50 μM AgNO3, agar plate): x | Microbial growth dependence on AgNO3 concentration ([2]; 100 μM AgNO3, agar plate): x | Microbial growth dependence on AgNO3 concentration ([3]; 2 μM AgNO3, agar plate): x | Microbial growth dependence on AgNO3 concentration ([3]; 10 μM AgNO3, agar plate): x | Microbial growth dependence on AgNO3 concentration ([3]; 20 μM AgNO3, agar plate): x | Microbial growth dependence on AgNO3 concentration ([3]; 50 μM AgNO3, agar plate): x | Microbial growth dependence on AgNO3 concentration ([3]; 100 μM AgNO3, agar plate): x | Microbial growth dependence on AgNO3 concentration ([4]; 2 μM AgNO3, agar plate): x | Microbial growth dependence on AgNO3 concentration ([4]; 10 μM AgNO3, agar plate): x | Microbial growth dependence on AgNO3 concentration ([4]; 20 μM AgNO3, agar plate): x | Microbial growth dependence on AgNO3 concentration ([4]; 50 μM AgNO3, agar plate): x | Microbial growth dependence on AgNO3 concentration ([4]; 100 μM AgNO3, agar plate): x | Microbial growth dependence on AgNO3 concentration ([4]; 150 μM AgNO3, agar plate): x | Microbial growth dependence on AgNO3 concentration ([4]; 200 μM AgNO3, agar plate): (x)

[Au+3].[Cl-].[Cl-].[Cl-].[Cl-].[H+] [HAuCl4]
Microbial growth dependence on HAuCl4 concentration ([1]; 2 μM HAuCl4, agar plate): x | Microbial growth dependence on HAuCl4 concentration ([1]; 20 μM HAuCl4, agar plate): x | Microbial growth dependence on HAuCl4 concentration ([1]; 100 μM HAuCl4, agar plate): x | Microbial growth dependence on HAuCl4 concentration ([1]; 200 μM HAuCl4, agar plate): x | Microbial growth dependence on HAuCl4 concentration ([2]; 2 μM HAuCl4, agar plate): x | Microbial growth dependence on HAuCl4 concentration ([2]; 20 μM HAuCl4, agar plate): x | Microbial growth dependence on HAuCl4 concentration ([2]; 100 μM HAuCl4, agar plate): x | Microbial growth dependence on HAuCl4 concentration ([2]; 200 μM HAuCl4, agar plate): x | Microbial growth dependence on HAuCl4 concentration ([2]; 300 μM HAuCl4, agar plate): x | Microbial growth dependence on HAuCl4 concentration ([3]; 2 μM HAuCl4, agar plate): x | Microbial growth dependence on HAuCl4 concentration ([3]; 20 μM HAuCl4, agar plate): x | Microbial growth dependence on HAuCl4 concentration ([3]; 100 μM HAuCl4, agar plate): x | Microbial growth dependence on HAuCl4 concentration ([3]; 200 μM HAuCl4, agar plate): x | Microbial growth dependence on HAuCl4 concentration ([3]; 300 μM HAuCl4, agar plate): x | Microbial growth dependence on HAuCl4 concentration ([4]; 2 μM HAuCl4, agar plate): x | Microbial growth dependence on HAuCl4 concentration ([4]; 20 μM HAuCl4, agar plate): x | Microbial growth dependence on HAuCl4 concentration ([4]; 100 μM HAuCl4, agar plate): x | Microbial growth dependence on HAuCl4 concentration ([4]; 200 μM HAuCl4, agar plate): x | Microbial growth dependence on HAuCl4 concentration ([4]; 300 μM HAuCl4, agar plate): x | Microbial growth dependence on HAuCl4 concentration ([4]; 400 μM HAuCl4, agar plate): x | Microbial growth dependence on HAuCl4 concentration ([4]; 500 μM HAuCl4, agar plate): x
